What was measured:
Myc-Miro1-7A = target: T1, Myc-Miro1-7A (Homo sapiens, UniProt Q8IXI2, D530A/K427A/K454A/K528A/N428A/Q446A/S432A); test: Drug-resistant mutant Myc-Miro1-7A expressed in fibroblasts, immunostaining; format: cell-based; conditions: expressed in PD-2 fibroblasts, CCCP treatment
T1 construct: expressed in transfected cells; host or cells: human skin fibroblasts Healthy-1 and PD-2 (Lipofectamine 2000)
Procedure: (§1) FIG. 2A-FIG. 2F. Miro1 Reducer Eliminates the Miro1 Defect in PD Fibroblasts. (FIG. 2A) Chemical properties of Miro1 Reducer. (FIG. 2B) Wild-type flies (w^1118) were fed with DMSO alone (0 μM Miro1 Reducer) or Miro1 Reducer in DMSO at 250 μM for 7 days, and lysed and blotted as indicated. The band intensities are normalized to those of Tubulin from the same blots. n=4. (FIG. 2C-FIG. 2E) Fibroblasts were treated, lysed, and blotted as indicated. (FIG. 2C) Band intensities are normalized to those of GAPDH from the same blots and compared to “Healthy-1, no treatment” except otherwise indicated. n=4. (FIG. 2D) Band intensities are normalized to those of ATP5β from the same blots and expressed as a percentage of the mean of “0 μM Miro1 Reducer with CCCP”. Mean±S.E.M is shown. n=3. (FIG. 2E) Band intensities are normalized to those of GAPDH from the same blots and compared to “Healthy-1, no CCCP, no MG132” except otherwise indicated. n=4. (FIG. 2F) Healthy-1 and PD-2 fibroblasts were transfected as indicated, and immunostained with anti-Myc (Miro1, green) and stained with Dapi (blue). The Miro1 intensity is normalized to that of mito-dsRed from the same cell and quantified across 37-62 cells from 5 fields each transfection, 3 independent transfections. Scale bars: 50 μm. For (FIG. 2C-FIG. 2F), both CCCP and Miro1 Reducer were dissolved in DMSO. […]

OPA1 = OPA1 level in fibroblasts, Western blotting; format: cell-based, human; conditions: FIG. 2D
Procedure: as §1

T1 sequence (Q8IXI2 whole entry K427A/N428A/S432A/Q446A/K454A/K528A/D530A): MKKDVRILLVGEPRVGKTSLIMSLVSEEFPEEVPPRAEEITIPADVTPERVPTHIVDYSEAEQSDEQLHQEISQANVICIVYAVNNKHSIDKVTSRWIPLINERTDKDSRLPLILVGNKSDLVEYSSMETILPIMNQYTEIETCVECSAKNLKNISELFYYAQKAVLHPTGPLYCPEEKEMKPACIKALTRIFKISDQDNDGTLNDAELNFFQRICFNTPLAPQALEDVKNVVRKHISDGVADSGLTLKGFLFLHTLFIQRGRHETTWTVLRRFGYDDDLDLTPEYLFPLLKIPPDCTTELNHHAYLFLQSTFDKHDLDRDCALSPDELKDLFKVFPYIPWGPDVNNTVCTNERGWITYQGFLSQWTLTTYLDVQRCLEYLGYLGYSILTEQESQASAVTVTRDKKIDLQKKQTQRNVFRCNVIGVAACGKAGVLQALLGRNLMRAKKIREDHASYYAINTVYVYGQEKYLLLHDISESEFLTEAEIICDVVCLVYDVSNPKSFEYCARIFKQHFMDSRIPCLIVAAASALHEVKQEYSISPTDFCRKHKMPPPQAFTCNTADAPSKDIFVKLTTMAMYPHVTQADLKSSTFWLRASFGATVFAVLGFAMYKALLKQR

## O=C(Nc1ccc(Nc2cc(-n3ccnc3)ncn2)cc1)Nc1cccc(F)c1 [Miro1 Reducer]
Myc-Miro1-7A
  response of mutant Myc-Miro1-7A to compound: failed to respond
OPA1
  IMM dynamin GTPase OPA1 level: not reduced
